Measurements: patent US11524003B2, “Alpha-amino esters of hydroxypropylthiazolidine carboxamide derivative and salt form, crystal polymorph thereof” (ObsEva S.A., priority 2016, dated 2022)

How the values were obtained:
[1] = tested on: OT-induced myometrial contractility; test: Oxytocin-induced contractions of human myometrial biopsies (myograph); conditions: 6, 60, 600, 6000 nM
Procedure: Experiments were performed using a DMT Myograph 800 MS (ADINSTRUMENTS™) in oxygenated Kreb's solution with ADI Powerlab software. Once regular contractions had been established for at least 20 minutes, baseline measurements of spontaneous contraction frequency were recorded. The measurement of spontaneous contraction frequency is represented on the x-axis as “Spon.” A DMSO control or compound II was then added to each myometrial sample at the indicated concentrations and the effects of control or compound II on contractile frequency were measured over the ensuing 10-minute period. This time point is represented on the x-axis as “Compound II.” The effects of compound II on contractile frequency in the presence of OT were subsequently measured by challenging the myometrial tissue samples with increasing concentrations of OT (1 nM, 10 nM, and 100 nM) at sequential 10-minute intervals. […] Once regular contractions had been established for at least 20 minutes, baseline measurements of spontaneous work done per contraction were recorded. The measurement of spontaneous work done per contraction is represented on the x-axis as “Spon.” A DMSO control or compound II was then added to each myometrial sample at the indicated concentrations and the effects of control or compound II on work done per contraction were measured over the ensuing 10-minute period. […]

[2] = tested on: panel of 50 receptors, channels and enzymes binding sites; conditions: 1 μM
[3] = tested on: other prostaglandin receptor subtypes; conditions: FP over other subtypes
Procedure: (§1) Selectivity of compound II was tested against all eight prostaglandin receptor subtypes.

[4] = target: prostaglandin E receptor 2 (EP2) (Homo sapiens, UniProt P43116); conditions: FP over EP2
Sequence of prostaglandin E receptor 2 (EP2) (P43116 whole entry): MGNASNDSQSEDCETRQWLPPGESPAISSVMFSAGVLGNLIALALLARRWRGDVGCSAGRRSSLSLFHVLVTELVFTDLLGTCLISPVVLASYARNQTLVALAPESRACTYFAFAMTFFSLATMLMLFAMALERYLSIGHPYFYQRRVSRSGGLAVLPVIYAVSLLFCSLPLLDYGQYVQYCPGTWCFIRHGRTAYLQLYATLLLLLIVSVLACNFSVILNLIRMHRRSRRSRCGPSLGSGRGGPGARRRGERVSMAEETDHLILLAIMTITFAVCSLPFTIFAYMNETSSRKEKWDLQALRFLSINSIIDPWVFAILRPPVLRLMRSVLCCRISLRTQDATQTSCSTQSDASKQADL
Procedure: as §1

Question: Which “Effect on OT-induced myometrial contractility” value [1] does the source give for `O=C(N[C@@H](CCO)c1ccc(F)cc1)[C@@H]1SCCN1S(=O)(=O)c1ccc(-c2ccccc2)cc1` [Compound II, 3-([1,1′-biphenyl]-4-ylsulfonyl)-N-[1-(4-fluorophenyl)-3-hydroxypropyl]-1,3-thiazolidine-2-carboxamide] here?
Answer: suppressing both PGF2α-induced and OT-induced myometrial contractility in a dose-dependent fashion

Question: And the “Selectivity in panel of 50 receptors, channels and enzymes” value [2]?
Answer: high selectivity for FP

Question: What about the “Selectivity against other prostaglandin receptors” value [3] of the same molecule?
Answer: higher than 100 fold

Question: What about the “Selectivity versus prostaglandin E receptor 2 (EP2)” value [4] of the same molecule?
Answer: approximately 10 fold
